The target of test [1] is T1, recombinant human IDO1 enzyme (Homo sapiens, UniProt P14902).
T1 construct: purchased NTRC (Netherlands Translational Research Center) NTRC-hIDO-10K
As to the kind of experiment: Test of hIDO1 for enzymatic activity in vitro (NFK Green fluorescence). The test is classed as biochemical. How it is done: 1. Test of hIDO1 for Enzymatic Activity In Vitro
1.1 Purpose of Experiment:
Changes in production of NFK, an IDO1 enzymatic metabolite were detected with NFK Green™ fluorescent molecules. With an IC50 value of a compound as an index, an inhibitory effect of the compound on recombinant human IDO1 enzyme was evaluated.
The compound was diluted with dimethyl sulfoxide (DMSO) to 1 mM, with 10 gradients, each 3-fold dilution, in duplicate. 48 μL of 50 mM phosphate buffer, having pH of 6.5, was transferred by the Bravo automatic liquid processing platform to the compound plate. Then 2 μL of an already diluted compound/DMSO solution was added. After even mixing, 10 μL of the resultant mixture was transferred to the enzymatic reaction plate.
IDO1 enzyme was diluted to 20 nM in a reaction buffer (50 mM phosphate buffer with pH of 6.5, 0.1% of Tween-20, 2% of glycerol, 20 mM ascorbic acid, 20 μg/ml catalase, and 20 μM methylene blue), 20 μL of the diluted IDO1 enzyme was transferred to the enzymatic reaction plate, and incubated at 23° C. for 30 minutes. 10 μL of 400 μM L-type tryptophan substrate was added to start reaction. The incubation lasted at 23° C. for 90 minutes. 10 μL of NFK Green™ fluorescent dye was added. The resultant mixture was sealed with the plate sealing film. After incubation at 37° C. for 4 hours, an Envision multi-functional plate reader was used for reading (Ex 400 nm/Em 510 nm).
A reference well to which the IDO1 enzyme was added but no compound was added was set to have an inhibition rate of 0%, and a reference well to which no IDO1 enzyme was added was set to have an inhibition rate of 100%. Data was analyzed with XLFit 5 to calculate an IC50 value of the compound.

Test [2] concerns the target T2, IDO1 enzyme in Hela cells (Homo sapiens, UniProt P14902).
T2 construct: endogenous in cells; host or cells: Hela cells, induced with recombinant human interferon-γ
As to the kind of experiment: Test of hIDO1 for cytological activity (Hela cell kynurenine by LCMS, interferon-γ induced). The test is classed as cell-based. The following applies: interferon-γ 100 ng/ml, 20 hours. How it is done:
2. Test of hIDO1 for Cytological Activity
Changes in Hela cell kynurenine were detected by an LCMS method. With an IC50 value of a compound as an index, an inhibitory effect of the compound on IDO1 enzyme was evaluated.
The culture medium, trypsin, and DPBS were preheated in water bath at 37° C. The culture medium was removed by sucking from cell culture, followed by cleaning the cell culture with 10 mL of DPBS; the preheated trypsin was added to the culture flask, which was revolved to make the culture flask covered by trypsin uniformly, and placed into an incubator at 37° C. with 5% CO2 for digestion for 1-2 minutes; 10-15 mL of the culture medium was used to suspend cells each T150, followed by centrifugation at 800 rpm for 5 minutes. 10 mL of the culture medium was used to resuspend the cells. 1 mL of the cell resuspension was pipetted, and counted with Vi-cell; the Hela cells were diluted to 5×10^5/mL with the culture medium, 80 μL of the diluted Hela cells were added to the 96-well cell plate, and incubated in the an incubator at 37° C. with 5% CO2 for 5-6 hours.
The compound was diluted with DMSO to 1 mM, with 9 gradients, each 3-fold dilution, in duplicate. 5 μL of the already diluted compound DMSO solution was added to the compound plate containing 95 μL of the culture medium. After even mixing, 10 μL of the mixture was transferred to the cell plate.
10 μL of recombinant human interferon-γ was added to result in a final concentration of 100 ng/ml, to induce expression of IDO1. Incubation was carried out in the 5% CO2 incubator at 37° C. for 20 hours. 4 μL of 5% (w/v) trichloroacetic acid was added, followed by even mixing and incubation at 50° C. for 30 minutes. After centrifugation at 2400 rpm for 10 minutes, 40 μL of a supernatant was added to a 96-well V-bottom plate, followed by addition of a precipitant. Centrifugation was carried out at 4000 rpm for 10 minutes after even mixing. 100 μL of the supernatant was transferred to a new 96-well V-bottom plate. A content of kynurenine was detected through LCMS.
A reference well to which the interferon-γ was added but no compound was added was set to have an inhibition rate of 0%, and a reference well to which no Hela cell was added was set to have an inhibition rate of 100%. Data was analyzed with XLFit 5 to calculate an IC50 value of the compound.

T1 sequence (P14902 whole entry): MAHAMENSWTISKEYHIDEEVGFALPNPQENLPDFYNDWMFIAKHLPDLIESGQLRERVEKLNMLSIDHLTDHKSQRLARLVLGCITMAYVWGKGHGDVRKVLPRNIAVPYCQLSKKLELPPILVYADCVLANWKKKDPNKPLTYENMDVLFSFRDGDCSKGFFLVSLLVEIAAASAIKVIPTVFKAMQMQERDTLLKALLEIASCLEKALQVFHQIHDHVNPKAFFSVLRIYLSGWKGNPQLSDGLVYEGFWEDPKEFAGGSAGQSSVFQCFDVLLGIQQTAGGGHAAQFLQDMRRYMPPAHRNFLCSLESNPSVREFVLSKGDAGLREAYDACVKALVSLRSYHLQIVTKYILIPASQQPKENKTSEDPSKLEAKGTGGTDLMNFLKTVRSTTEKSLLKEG
T2 sequence (P14902 whole entry): as above

As for `O/N=C(\Nc1ccc(F)c(Br)c1)c1nonc1O` [Compound 0026], the IC50 (in general, the point on the concentration scale where inhibition reaches its midpoint) in test [1] is above 10 µM.

`COc1nonc1/C(=N/O)Nc1ccc(F)c(Br)c1` [Compound 0052]: the IC50 in test [1] was 0.109 µM; in test [2] it was 0.0249 µM.

Turning to `CSc1nonc1/C(=N/O)Nc1ccc(F)c(Br)c1` [Compound 0068], the IC50 was 0.113 µM in test [1] and 0.0286 µM in test [2].

For `COc1nonc1/C(=N/C#N)Nc1ccc(F)c(Br)c1` [Compound 0069], the IC50 in test [1] was above 10 µM.

For `NS(=O)(=O)NC1(COc2nonc2/C(=N/O)Nc2ccc(F)c(Br)c2)CC1` [Compound 0070], the IC50 in test [1] was 1.38 µM.

For `CC(COc1nonc1/C(=N/O)Nc1ccc(F)c(Br)c1)NS(N)(=O)=O` (stereo not drawn) [Compound 0071], in test [1], the 50% inhibitory concentration (IC50) turned out to be 0.799 µM.

In the case of `NOc1nonc1/C(=N/O)Nc1ccc(F)c(Br)c1` [Compound 0077], the half-maximal inhibitory concentration (IC50) in test [1] was above 10 µM.

As for `CC(C)(C)OC(=O)NOc1nonc1/C(=N/O)Nc1ccc(F)c(Br)c1` [Compound 0078], the IC50 in test [1] was above 10 µM.

Turning to `NS(=O)(=O)NC(COc1nonc1/C(=N/O)Nc1ccc(F)c(Br)c1)c1ccccc1` (stereo not drawn) [Compound 0089], in test [1], the half-maximal inhibitory concentration (IC50) was 0.981 µM.

As to `COc1nonc1/C(=N/O)Nc1ccc(F)c(C#N)c1` [Compound 0103], the IC50 in test [1] was found to be 0.537 µM.

As for `CS(=O)(=O)NCCOc1nonc1/C(=N/O)Nc1ccc(F)c(Br)c1` [Compound 0106], the IC50 in test [1] was 0.106 µM; in test [2] it was 0.0369 µM.

As for `O=S(=O)(NCCOc1nonc1/C(=N/O)Nc1ccc(F)c(Br)c1)c1ccccc1` [Compound 0107], the IC50 in test [1] turned out to be 1.3 µM.

For `O=C(NCCOc1nonc1/C(=N/O)Nc1ccc(F)c(Br)c1)c1ccccc1` [Compound 0108], the IC50 in test [1] worked out at 0.387 µM.

On to `NS(=O)(=O)NCCCOc1nonc1/C(=N/O)Nc1ccc(F)c(Br)c1` [Compound 0118], for which the IC50 is 0.0553 µM in test [1] and 0.0645 µM in test [2].

Turning to `CC(CNS(N)(=O)=O)Oc1nonc1/C(=N/O)Nc1ccc(F)c(Br)c1` (stereo not drawn) [Compound 0119], in test [1], the 50% inhibitory concentration (IC50) is 2.07 µM.

On to `N#Cc1cc(N/C(=N\O)c2nonc2OCCNS(N)(=O)=O)ccc1F` [Compound 0120], for which, in test [1], the 50% inhibitory concentration (IC50) came out at 0.616 µM.

For `NS(=O)(=O)NCCOc1nonc1/C(=N/O)Nc1ccc(F)c(C(F)(F)F)c1` [Compound 0121], the IC50 in test [1] turned out to be 0.188 µM.

For `NS(=O)(=O)NCCOc1nonc1/C(=N/O)Nc1ccc(F)c(C2CC2)c1` [Compound 0122], the IC50 in test [1] is 0.565 µM.

Turning to `O/N=C(\Nc1ccc(F)c(Br)c1)c1nonc1OC1CCOC1` (stereo not drawn) [Compound 0124], in test [1], the IC50 turned out to be 1.03 µM.

As for `COCCCCOc1nonc1/C(=N/O)Nc1ccc(F)c(Br)c1` [Compound 0128], the half-maximal inhibitory concentration (IC50) in test [1] was found to be 0.601 µM.

`O/N=C(\Nc1ccc(F)c(Br)c1)c1nonc1OCC1COC1` [Compound 0129]: the IC50 in test [1] came out at 0.426 µM.

Consider `O/N=C(\Nc1ccc(F)c(Br)c1)c1nonc1OCCc1ccccn1` [Compound 0131], for which, in test [1], the IC50 turned out to be 0.702 µM.

On to `CN(CCOc1nonc1/C(=N/O)Nc1ccc(F)c(Br)c1)Cc1ccccc1` [Compound 0133], for which the concentration for half-maximal inhibition (IC50) in test [1] was determined as 1.03 µM.

Regarding `O/N=C(\Nc1ccc(F)c(Br)c1)c1nonc1SCc1ccccc1Cl` [Compound 0134], the IC50 in test [1] came out at 7.15 µM.

In the case of `O/N=C(\Nc1ccc(F)c(Br)c1)c1nonc1OCC(F)(F)F` [Compound 0135], the half-inhibitory concentration (IC50) in test [1] worked out at 3.29 µM.

`O/N=C(\Nc1ccc(F)c(Br)c1)c1nonc1SC1CCCCC1` [Compound 0137]: in test [1], the IC50 is 5.71 µM.

With `C=CCSc1nonc1/C(=N/O)Nc1ccc(F)c(Br)c1` [Compound 0138], the IC50 in test [1] came to 0.364 µM.

Consider `CNC(=O)COc1nonc1/C(=N/O)Nc1ccc(F)c(Br)c1` [Compound 0139], for which the results for the IC50 in test [1] and in test [2] were 0.265 µM and 0.1 µM, respectively.

With `CN(C)CCOc1nonc1/C(=N/O)Nc1ccc(F)c(Br)c1` [Compound 0140], in test [1], the IC50 stood at 0.197 µM.

Take `CS(=O)(=O)N1CC(COc2nonc2/C(=N/O)Nc2ccc(F)c(Br)c2)C1` [Compound 0141]: the IC50 in test [1] came to 0.452 µM.

In the case of `CS(=O)(=O)N1CCC(COc2nonc2/C(=N/O)Nc2ccc(F)c(Br)c2)CC1` [Compound 0142], the half-inhibitory concentration (IC50) in test [1] amounted to 1.31 µM.

Regarding `O/N=C(\Nc1ccc(F)c(Br)c1)c1nonc1OCc1c[nH]cn1` [Compound 0143], in test [1], the IC50 is above 10 µM.

With `O/N=C(\Nc1ccc(F)c(Br)c1)c1nonc1OCc1cncs1` [Compound 0144], the IC50 in test [1] is above 10 µM.

On to `NCCOc1nonc1/C(=N/O)Nc1ccc(F)c(Br)c1` [Compound 0147], for which the IC50 in test [1] turned out to be 0.0715 µM; in test [2], 0.123 µM.

Regarding `CP(C)(=O)NCCOc1nonc1/C(=N/O)Nc1ccc(F)c(Br)c1` [Compound 0149], in test [1], the IC50 amounted to 0.29 µM.

For `O/N=C(\Nc1ccc(F)c(Br)c1)c1nonc1Oc1ccc(Cl)cc1` [Compound 0150], the IC50 in test [1] is above 10 µM.

With `NS(=O)(=O)NCCOc1nonc1/C(=N/O)Nc1cc(F)c(Cl)c(F)c1` [Compound 0156], the IC50 in test [1] is 5.7 µM.

On to `COc1c(F)cc(N/C(=N\O)c2nonc2OCCNS(N)(=O)=O)cc1F` [Compound 0158], for which the IC50 in test [1] was 4.36 µM.

Take `NS(=O)(=O)NCCOc1nonc1/C(=N/O)Nc1ccc(Cl)c(Cl)c1` [Compound 0160]: in test [1], the half-maximal inhibitory concentration (IC50) amounted to 3.83 µM.

As to `NS(=O)(=O)NCCOc1nonc1/C(=N/O)Nc1ccc(F)c(F)c1` [Compound 0162], in test [1], the IC50 was found to be 0.928 µM.

Turning to `O=C1NCCN1CCOc1nonc1/C(=N/O)Nc1ccc(F)c(Br)c1` [Compound 0179], the IC50 in test [1] stood at 0.594 µM.

Turning to `CCS(=O)(=O)CCOc1nonc1/C(=N/O)Nc1ccc(F)c(Br)c1` [Compound 0180], in test [1], the IC50 is above 10 µM.

Regarding `CN(C)CCN(C)CCOc1nonc1/C(=N/O)Nc1ccc(F)c(Br)c1` [Compound 0182], the IC50 in test [1] came to 0.673 µM.

Take `CCN(CC)C(=O)COc1nonc1/C(=N/O)Nc1ccc(F)c(Br)c1` [Compound 0183]: the IC50 in test [1] was found to be 1.12 µM.

Regarding `NS(=O)(=O)NCCOc1nonc1/C(=N/O)Nc1ccc(Cl)c(C(F)(F)F)c1` [Compound 0184], the IC50 in test [1] worked out at 4.83 µM.

In the case of `NS(=O)(=O)NCCOc1nonc1/C(=N/O)Nc1cc(F)c(F)c(Br)c1` [Compound 0189], in test [1], the half-inhibitory concentration (IC50) was found to be 0.59 µM.

Take `NS(=O)(=O)NCCOc1nonc1/C(=N/O)Nc1ccc(F)c(Cl)c1` [Compound 0190]: the IC50 in test [1] turned out to be 0.945 µM.

Regarding `NS(=O)(=O)N[C@H]1C[C@H](Oc2nonc2/C(=N/O)Nc2ccc(F)c(Br)c2)C1` [Compound 0222], in test [1], the IC50 amounted to 0.466 µM.

With `O=S(=O)(NCCSc1nonc1/C(=N/O)Nc1ccc(F)c(Br)c1)C1CC1` [Compound 0230], the IC50 in test [1] was 0.203 µM.

Consider `CN(C)S(=O)(=O)NCCSc1nonc1/C(=N/O)Nc1ccc(F)c(Br)c1` [Compound 0232], for which the IC50 in test [1] amounted to 0.373 µM.

In the case of `NS(=O)(=O)NCC[S+]([O-])c1nonc1/C(=N/O)Nc1ccc(F)c(Br)c1` (stereo not drawn) [Compound 0239], in test [1], the half-inhibitory concentration (IC50) amounted to 0.846 µM.

Consider `CCNC(=O)CSc1nonc1C(=NO)Nc1ccc(F)c(Br)c1` [Compound 0300], for which the IC50 in test [1] was 0.0726 µM.

As to `O=C(CSc1nonc1/C(=N/O)Nc1ccc(F)c(Br)c1)NCC(F)(F)F` [Compound 0301], the half-inhibitory concentration (IC50) in test [1] is 0.125 µM.

Take `O=C(CSc1nonc1/C(=N/O)Nc1ccc(F)c(Br)c1)NCC(F)F` [Compound 0302]: the 50% inhibitory concentration (IC50) in test [1] came out at 0.088 µM.

For the origin of these results see patent US20190169140A1, “IDO1 INHIBITOR AND PREPARATION METHOD AND APPLICATION THEREOF” (SHANDONG LUYE PHARMACEUTICAL CO., LTD., priority 2016, published 2019).
